# Patent US9651554B2, “Molecular diagnostic methods for predicting brain metastasis of breast cancer” (The Methodist Hospital Research Institute, priority 2010, dated 2017)
# Tests used:
# in vivo = details: BALB/c nude, mouse, po
# Procedure: Blood and whole brain of the mice were harvested 6 hours after the last treatment. Plasma was isolated from blood by centrifugation at 3000 rpm for 10 min at 4° C. Half of each brain was flash frozen using liquid nitrogen. All plasma and brain samples were stored at −80° C. until analysis by HPLC-MS/MS.
# The separation was performed by injecting 10 μL of the sample on Acquity HPLC BEH C18 column (50×2.1 mm I.D., 1.7 μm, Waters, Milford, Mass., USA). […] The flow rate was 0.45 mL/min using a column temperature of 45° C.
# The blood and whole brain of the mice were harvested six hours after the last treatment and the drug concentrations were measured by HPLC-MS/MS.
# [1] = reported (Porkka et al., 2008); cited from earlier work
# 231-BR-vector cells = test: Brain metastasis xenograft, 231-BR-vector model: metastases counted in H&E-stained brain sections; details: for large metastases # / Micro metastases #: 231-BR-vector model; for large metastases #: >50 μm^2; for Micro metastases #: ≦50 μm^2
# Description: Treatment started 3 days after cell injection.
# Brain sections (10 μm thick) were serially sectioned.
# Mice received 28 days treatment, and all mice were sacrificed, and brains were harvested for ex vivo whole-brain fluorescent imaging of EGFP-positive brain metastases.
# 231-BR-HER2 cells = test: Brain metastasis xenograft, 231-BR-HER2 model: metastases counted in H&E-stained brain sections; details: for fewer large metastases than vehicle / fewer micrometastases than vehicle: 231-BR-HER2 cells, p<0.05; for large metastases # / Micro metastases #: 231-BR-HER2 model; for large metastases #: >50 μm^2; for Micro metastases #: ≦50 μm^2
# [2] = 25 mg/kg once daily oral 28 days
# [3] = 50 mg/kg once daily oral 28 days
# [4] = 40 mg/kg once daily oral 28 days
# [5] = 80 mg/kg once daily oral 28 days
smiles,measurement,setting,value
Cc1nc(Nc2ncc(C(=O)Nc3c(C)cccc3Cl)s2)cc(N2CCN(CCO)CC2)n1 [Dasatinib],Kp at 336 h,in vivo,0.06 to 0.12
same,BBB crossing,[1],able to cross the BBB
same,fewer micrometastases than vehicle,"231-BR-vector cells; 231-BR-vector cells, 25 or 50 mg/kg body weight, p<0.05",33.8-54.4%
same,fewer large metastases than vehicle,"231-BR-vector cells; 231-BR-vector cells, 25 or 50 mg/kg, p<0.05",41.9-49.3%
same,large metastases #,231-BR-vector cells; [2],8.6 ± 1.5
same,Micro metastases #,231-BR-vector cells; [2],144.6 ± 12.5
same,large metastases #,231-BR-vector cells; [3],7.5 ± 1.3
same,Micro metastases #,231-BR-vector cells; [3],99.5 ± 10.3
same,fewer large metastases than vehicle,231-BR-HER2 cells; 25 or 50 mg/kg body weight,38.1-56.9%
same,fewer micrometastases than vehicle,231-BR-HER2 cells; 25 or 50 mg/kg body weight,40.2-61.4%
same,large metastases #,231-BR-HER2 cells; [2],12.5 ± 1.8
same,Micro metastases #,231-BR-HER2 cells; [2],175.7 ± 27.8
same,large metastases #,231-BR-HER2 cells; [3],8.7 ± 1.6
same,Micro metastases #,231-BR-HER2 cells; [3],113.2 ± 23.8
CCN(CC)CCNC(=O)c1c(C)[nH]c(/C=C2\C(=O)Nc3ccc(F)cc32)c1C [Sunitinib],Kp at 336 h,in vivo,0.24 to 0.31
same,fewer large metastasis than vehicle,"231-BR-vector cells; 231-BR-vector cells, 80 mg/kg body weight, p<0.05",31%
same,fewer micrometastases than vehicle,"231-BR-vector cells; 231-BR-vector cells, 40 or 80 mg/kg body weight, p<0.05",28.5-31.3%
same,large metastases #,231-BR-vector cells; [4],11.8 ± 2.0
same,large metastases #,231-BR-vector cells; [5],10.2 ± 1.3
same,Micro metastases #,231-BR-vector cells; [5],150.2 ± 22
same,fewer large metastases than vehicle,231-BR-HER2 cells; 40 or 80 mg/kg body weight,22.7-24.8%
same,fewer micrometastases than vehicle,231-BR-HER2 cells; 40 or 80 mg/kg body weight,22.3-31.9%
same,Micro metastases #,231-BR-HER2 cells; [4],228.1 ± 28.3
same,Micro metastases #,231-BR-HER2 cells; [5],199.8 ± 24.1
